Two compounds from US11253497B2, “Use of derivatives of polyunsaturated fatty acids as medicaments” (Lipopharma Therapeutics, S.L., priority 2009, dated 2022) can be followed below.

Molecules are shown by their SMILES.

The assay relates to 3T3 cells. As to the kind of experiment: Percentage of total PUFAs in membranes of 3T3 cells treated with fatty acids (gas chromatography). The conditions noted are these: 100 μM, 48 hours, mean ± SEM of four measures, control 32.4 ± 2.1. It counts as cell-based. The text has this:
To perform these experiments, membranes were extracted and total fatty acids were obtained by hydrolysis in basic medium. Methanolic bases of these fatty acids were quantified by gas chromatography. The data shown are averages of four independent measures of PUFA's mass divided by the total fatty acids and expressed as a percentage. It is also shown is standard error of the mean.
The control corresponds to a culture without the presence of added natural or synthetic fatty acids. Cells in their natural form present PUFAs in their membranes, but the presence in the medium of the D-PUFA molecules of the invention increases these levels of PUFAs in the cell membrane.

`CCC=CCC=CCC=CCC=CCC=CCCC(O)C(=O)O` (centres unmarked) [205A1, 2-hydroxy-5,8,11,14,17-eicosapentaenoic acid]: the “Percentage of total PUFA” value was determined as 46.7 ± 3.4%.

For the compound `CCC=CCC=CCC=CCC=CCC=CCC=CCC(O)C(=O)O` (centres unmarked) [226A1], the “Percentage of total PUFA” value is 48.9 ± 3.7%.
